Where “and” joins values, the source holds several entries; their conditions need not be identical. Identical values can stand only once.
System: SK-OV-3 multi-cell spheroids, viability
Test: Anticancer human tumor SK-OV-3 cell line growth inhibition [IpAb];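 for viability, T/C: viability read after seven days of drug exposure; percent of DMSO vehicle control luminescence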
Conditions: for viability, T/C: stronger effect = lower value
Method in brief: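 Spheroids of 60% malignant cells, 25% HUVEC and 15% MSC were exposed to targeted agents combined with ipatasertib or abemaciclib. Doses started at or near clinical Cmax (10 microM when unknown) and fell in half-log steps.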

[1] = curve of first compound, second compound 0.1 µM
[2] = curve of first compound, second compound 0.316 µM
[3] = curve of first compound, second compound 1 µM
[4] = second compound 0.1 µM, first compound 0.0316 µM
[5] = second compound 0.1 µM, first compound 0.1 µM
[6] = second compound 0.1 µM, first compound 0.316 µM
[7] = second compound 0.1 µM, first compound 1 µM
[8] = second compound 0.1 µM, first compound 3.16 µM
[9] = second compound 0.1 µM, first compound 10 µM
[10] = second compound 0.316 µM, first compound 0.0316 µM
[11] = second compound 0.316 µM, first compound 0.1 µM
[12] = second compound 0.316 µM, first compound 0.316 µM
[13] = second compound 0.316 µM, first compound 1 µM
[14] = second compound 0.316 µM, first compound 3.16 µM
[15] = second compound 0.316 µM, first compound 10 µM
[16] = second compound 1 µM, first compound 0.0316 µM
[17] = second compound 1 µM, first compound 0.1 µM
[18] = second compound 1 µM, first compound 0.316 µM
[19] = second compound 1 µM, first compound 1 µM
[20] = second compound 1 µM, first compound 3.16 µM
[21] = second compound 1 µM, first compound 10 µM

In the case of `Cn1nccc1Nc1nccc(-c2ccn(C(CO)c3ccc(Cl)c(F)c3)c(=O)c2)n1` (stereo not drawn), the viability, T/C (compound 0.0316 µM) is reported as 101% and 98.5%, the viability, T/C (compound 0.1 µM) is reported as 103% and 108% and the viability, T/C (compound 0.316 µM) is reported as 108% and 116%. The viability, T/C (compound 1 µM) was 126%, the viability, T/C (compound 3.16 µM) was 94.8% and 100% and the viability, T/C (compound 10 µM) was 52.2% and 48.9%. The IC50 (curve of compound) was > 10000 nM and 9730 nM.

For `Cc1nc(NC(=O)N2CCCC2C(N)=O)sc1-c1ccnc(C(C)(C)C(F)(F)F)c1` (stereo not drawn) + CC(C)NCC(C(=O)N1CCN(c2ncnc3c2C(C)CC3O)CC1)c1ccc(Cl)cc1, the IC50 [1] was 120 nM, the IC50 [2] was < 31.6 nM and the IC50 [3] was < 31.6 nM. For the same molecule, the IC50 (curve of first compound, second compound 3.16 µM) was < 31.6 nM, the IC50 (curve of first compound, second compound 10 µM) was < 31.6 nM and the viability, T/C [4] was 67.1%. For the same molecule, the viability, T/C [5] was 52.7%, the viability, T/C [6] was 35% and the viability, T/C [7] was 19.4%. The viability, T/C [8] was 9%, the viability, T/C [9] was 5% and the viability, T/C [10] was 33.5%. For the same molecule, the viability, T/C [11] was 30.2%, the viability, T/C [12] was 22.5% and the viability, T/C [13] was 11.6%. For the same molecule, the viability, T/C [14] was 8.53%, the viability, T/C [15] was 4.14% and the viability, T/C [16] was 16.4%. It also gave a viability, T/C [17] of 15.6%, a viability, T/C [18] of 13.8% and a viability, T/C [19] of 9.61%. It also gave a viability, T/C [20] of 7.02%, a viability, T/C [21] of 4.07% and a viability, T/C (second compound 3.16 µM, first compound 0.0316 µM) of 14.5%. The viability, T/C (second compound 3.16 µM, first compound 0.1 µM) was 11.2%, the viability, T/C (second compound 3.16 µM, first compound 0.316 µM) was 7.81% and the viability, T/C (second compound 3.16 µM, first compound 1 µM) was 6.61%. It also gave a viability, T/C (second compound 3.16 µM, first compound 3.16 µM) of 6.22%, a viability, T/C (second compound 3.16 µM, first compound 10 µM) of 4.46% and a viability, T/C (second compound 10 µM, first compound 0.0316 µM) of 7.89%. It also gave a viability, T/C (second compound 10 µM, first compound 0.1 µM) of 8.14%, a viability, T/C (second compound 10 µM, first compound 0.316 µM) of 5.69% and a viability, T/C (second compound 10 µM, first compound 1 µM) of 5.04%. It also gave a viability, T/C (second compound 10 µM, first compound 3.16 µM) of 3.63% and a viability, T/C (second compound 10 µM, first compound 10 µM) of 2.25%.

`CC(C)NCC(C(=O)N1CCN(c2ncnc3c2C(C)CC3O)CC1)c1ccc(Cl)cc1` (stereo not drawn) was tested, and the viability, T/C (compound 0.1 µM) was 69% [middle of 13 runs], the viability, T/C (compound 0.316 µM) was 37.8% [middle of 13 runs] and the viability, T/C (compound 1 µM) was 21.5% [middle of 13 runs]. The viability, T/C (compound 3.16 µM) was 15.8% [middle of 13 runs], the viability, T/C (compound 10 µM) was 10.5% [middle of 12 runs] and the IC50 (compound alone, run of 05/18/2021) was 202 nM [middle of 13 runs].

For `C=CCn1c(=O)c2cnc(Nc3ccc(N4CCN(C)CC4)cc3)nc2n1-c1cccc(C(C)(C)O)n1` + CCN1CCN(Cc2ccc(Nc3ncc(F)c(-c4cc(F)c5nc(C)n(C(C)C)c5c4)n3)nc2)CC1, the IC50 (curve of first compound, second compound 0.01 µM) was 90 nM, the IC50 (curve of first compound, second compound 0.0316 µM) was 55.9 nM and the IC50 [1] was < 31.6 nM. The IC50 [2] was 39.3 nM, the IC50 [3] was < 31.6 nM and the viability, T/C (second compound 0.01 µM, first compound 0.0316 µM) was 83.9%. The viability, T/C (second compound 0.01 µM, first compound 0.1 µM) was 46.6%, the viability, T/C (second compound 0.01 µM, first compound 0.316 µM) was 13.1% and the viability, T/C (second compound 0.01 µM, first compound 1 µM) was 7.77%. For the same molecule, the viability, T/C (second compound 0.01 µM, first compound 3.16 µM) was 4.03%, the viability, T/C (second compound 0.01 µM, first compound 10 µM) was 6.24% and the viability, T/C (second compound 0.0316 µM, first compound 0.0316 µM) was 63.7%. It also gave a viability, T/C (second compound 0.0316 µM, first compound 0.1 µM) of 36%, a viability, T/C (second compound 0.0316 µM, first compound 0.316 µM) of 12.1% and a viability, T/C (second compound 0.0316 µM, first compound 1 µM) of 8.26%. It also gave a viability, T/C (second compound 0.0316 µM, first compound 3.16 µM) of 6.84%, a viability, T/C (second compound 0.0316 µM, first compound 10 µM) of 6.66% and a viability, T/C [4] of 49.2%. For the same molecule, the viability, T/C [5] was 36.3%, the viability, T/C [6] was 14.4% and the viability, T/C [7] was 9.93%. For the same molecule, the viability, T/C [8] was 5.86%, the viability, T/C [9] was 8.17% and the viability, T/C [10] was 53.5%. For the same molecule, the viability, T/C [11] was 34.8%, the viability, T/C [12] was 17.9% and the viability, T/C [13] was 15%. For the same molecule, the viability, T/C [14] was 10.3%, the viability, T/C [15] was 10.5% and the viability, T/C [16] was 36.4%. The viability, T/C [17] was 29.3%, the viability, T/C [18] was 19.7% and the viability, T/C [19] was 16.9%. It also gave a viability, T/C [20] of 17.4% and a viability, T/C [21] of 15.6%.
